Measured values reported in ChEMBL document CHEMBL5380812, “Structural Dynamics-Driven Discovery of Anticancer and Antimetastatic Effects of Diltiazem and Glibenclamide Targeting Urokinase Receptor” (J Med Chem, 2023).
pIC50, pKd: −log10 of the molar value. Calls of active or inactive are those of the source. No cut-off for these calls is given here.

Assays:
[1] = test system: Urokinase plasminogen activator surface receptor (Homo sapiens), Q03405 [UNDEFINED MUTATION]; conditions: dose 100.0 µM
Chain of Urokinase plasminogen activator surface receptor (Homo sapiens), Q03405 [UNDEFINED MUTATION] (Q03405 whole entry, looked up, stated change not applied): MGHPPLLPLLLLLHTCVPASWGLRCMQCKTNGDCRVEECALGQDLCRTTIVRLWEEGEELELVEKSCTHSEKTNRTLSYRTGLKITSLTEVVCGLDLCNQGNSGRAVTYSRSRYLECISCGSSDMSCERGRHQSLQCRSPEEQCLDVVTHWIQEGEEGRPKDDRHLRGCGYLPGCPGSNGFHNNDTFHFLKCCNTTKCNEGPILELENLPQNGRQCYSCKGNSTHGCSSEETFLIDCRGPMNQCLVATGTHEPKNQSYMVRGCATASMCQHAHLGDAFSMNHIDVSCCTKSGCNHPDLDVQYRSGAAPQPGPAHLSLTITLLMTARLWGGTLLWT
Description: Binding affinity to uPAR H47C/N259C (unknown origin) mutant assessed as response unit at 100 uM by surface plasmon resonance (SPR) analysis relative to control

[2] = target: Urokinase plasminogen activator surface receptor (Homo sapiens, UniProt Q03405, H47C/N259C); assay: Binding affinity to uPAR H47C/N259C (unknown origin) mutant assessed as equilibrium dissociation constant by surface plasmon resonance (SPR) analysis relative to control
Chain of Urokinase plasminogen activator surface receptor (Q03405 23-305 H69C/N281C limits assumed): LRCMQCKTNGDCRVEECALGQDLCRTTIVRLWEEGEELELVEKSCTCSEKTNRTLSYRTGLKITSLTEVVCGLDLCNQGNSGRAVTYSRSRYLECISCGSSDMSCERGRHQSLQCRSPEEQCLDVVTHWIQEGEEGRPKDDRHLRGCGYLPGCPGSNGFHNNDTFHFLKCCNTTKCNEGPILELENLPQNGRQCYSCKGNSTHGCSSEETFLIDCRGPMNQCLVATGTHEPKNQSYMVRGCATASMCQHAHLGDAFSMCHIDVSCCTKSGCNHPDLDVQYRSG

[3] = test system: PC-3; assay: Inhibition of cell migration in human PC-3 cells assessed as wound healing measured upto 100 uM; type: cell-based
[4] = test system: CT26; assay: In vivo antitumor activity against CT26 cells subcutaneously homografted in Balb/c mouse model assessed as tumor weight at 300 mg/kg, po every two days for 14 days relative to control; type: functional; conditions: CT26, 336 h, time 14 day
[5] = test system: CT26; assay: In vivo antimetastatic activity against mouse CT26-muPAR-mCherry cells intravenously homografted in Balb/c mouse lung metastatic model assessed as suppression of mCherry fluorescence in lung at 100 mg/kg, po every two days for 15 days relative to control; type: functional; conditions: time 15 day
[6] = test system: PC-3; assay: Antiinvasive activity against human PC-3 cells expressing high uPAR assessed as inhibition of invasive property incubated for 24 hrs by Crystal violet staining based - Transwell assay; type: functional, cell-based; conditions: dose 0-100 µM
[7] = test system: CT26; assay: In vivo antimetastatic activity against mouse CT-26-muPAR-mCherry cells intravenously homografted in Balb/c mouse lung metastatic model assessed as suppression of hyperplastic nodules on the pleural surface in lung at 100 to 300 mg/kg, po every two days for 15 days; type: functional, organism-based; conditions: dose 100-300 mg/kg, time 15.0 day
[8] = test system: CT26; assay: In vivo antimetastatic activity against mouse CT-26-muPAR-mCherry cells intravenously homografted in Balb/c mouse lung metastatic model assessed as suppression of hyperplasia-induced lung weight increase at 30 to 100 to 300 mg/kg, po every two days for 15 days; type: functional, organism-based; conditions: dose 100-300 mg/kg, time 15.0 day
[9] = test system: Caco-2; assay: Antiinvasive activity against uPAR-negative human Caco-2 cells assessed as inhibition of invasive property at upto 100 uM incubated for 24 hrs by Crystal violet staining based - Transwell assay; type: functional, cell-based
[10] = test system: CT26; assay: In vivo antitumor activity against mouse CT26 cells subcutaneously homografted in Balb/c mouse model assessed as suppression of tumor growth at 300 mg/kg, po every two days for 14 days; type: functional, organism-based; conditions: time 14.0 day
[11] = test system: MCF7; assay: Antiinvasive activity against empty vector transfected human MCF7 cells assessed as suppression of invasive property at upto 100 uM incubated for 24 hrs by Crystal violet staining based - Transwell assay; type: functional, cell-based
[12] = test system: MDA-MB-231; assay: Antiinvasive activity against human MDA-MB-231 cells expressing moderate uPAR assessed as inhibition of invasive property at upto 100 uM incubated for 24 hrs by Crystal violet staining based - Transwell assay; type: functional, cell-based
[13] = test system: CT26; assay: Antiinvasive activity against mouse CT26 cells assessed as suppression of invasive property incubated for 24 hrs by Crystal violet staining based - Transwell assay; type: functional, cell-based; conditions: dose 0-100 µM
[14] = test system: MCF7; assay: Antiinvasive activity against short hairpin RNA sequence of uPA containing vector transfected human MCF7-shuPA cells assessed as suppression of invasive property at upto 100 uM incubated for 24 hrs by Crystal violet staining based - Transwell assay; type: functional, cell-based
[15] = test system: CT26; assay: Antiinvasive activity against mouse CT26-muPAR-mCherry cells assessed as suppression of invasive property incubated for 24 hrs by Crystal violet staining based - Transwell assay; type: functional, cell-based; conditions: dose 0-100 µM
[16] = test system: CT26; assay: In vivo antimetastatic activity against mouse CT-26-muPAR-mCherry cells intravenously homografted in Balb/c mouse lung metastatic model assessed as suppression of metastases of cancer cells around vessels at 300 mg/kg, po every two days for 15 days by histopathological analysis; type: functional, organism-based; conditions: time 15.0 day
[17] = test system: HEK-293T; assay: Antimetastatic activity against uPAR-overexpressing HEK293T cells assessed as suppression of invasive property incubated for 24 hrs by Crystal violet staining based - Transwell assay; type: functional, cell-based; conditions: Homo sapiens, dose 0-100 µM
[18] = test system: HUVEC; assay: Antiangiogenic activity against HUVEC cells assessed as inhibition of formation of capillary-like polygons/fork-like branches in serum free medium at 100 uM; type: functional, cell-based; conditions: Homo sapiens
[19] = Inhibition of human recombinant […]/uPAR (unknown origin) interaction measured after 2 hrs by ELISA
[20] = test system: PC-3; assay: Cytotoxicity against human PC-3 cells assessed as survival rate without matrigel at upto 100 uM; type: toxicity, cell-based; conditions: pc-3, 100 µM
[21] = Toxicity in Balb/c mouse homografted with mouse CT26 cells assessed as body weight at 300 mg/kg, po every two days for 14 days; type: organism-based; conditions: in vivo, 336 h, time 14 day
[22] = test system: CT26; assay: In vivo antimetastatic activity against mouse CT26-muPAR-mCherry cells intravenously homografted in Balb/c mouse lung metastatic model assessed as suppression of mCherry fluorescence in lung at 300 mg/kg, po every two days for 15 days relative to control; type: functional; conditions: time 15 day
[23] = test system: PC-3; assay: Antiinvasive activity against human PC-3 cells expressing high uPAR assessed as inhibition of invasive property without matrigel at upto 100 uM incubated for 24 hrs by crystal violet staining based - Transwell assay; type: functional, cell-based
[24] = Toxicity in Balb/c mouse homografted with mouse CT-26-muPAR-mCherry cells assessed as adverse effect at 300 mg/kg, po every two days for 15 days; type: organism-based; conditions: in vivo, 360 h, time 15 day
[25] = test system: CT26; assay: In vivo antitumor activity against mouse CT26 cells subcutaneously homografted in Balb/c mouse model assessed as suppression of tumor growth at 100 mg/kg, po every two days for 14 days; type: functional, organism-based; conditions: time 14.0 day
[26] = test system: CT26; assay: In vivo antimetastatic activity against mouse CT-26-muPAR-mCherry cells intravenously homografted in Balb/c mouse lung metastatic model assessed as suppression of hyperplasia-induced lung weight increase at 30 to 100 mg/kg, po every two days for 15 days; type: functional, organism-based; conditions: dose 30-100 mg/kg, time 15.0 day
[27] = test system: CT26; assay: In vivo antimetastatic activity against mouse CT26-muPAR-mCherry cells intravenously homografted in Balb/c mouse lung metastatic model assessed as suppression of mCherry fluorescence in lung at 30 mg/kg, po every two days for 15 days relative to control; type: functional; conditions: time 15 day
[28] = test system: CT26; assay: In vivo antitumor activity against mouse CT26 cells subcutaneously homografted in Balb/c mouse model assessed as tumor weight at 100 mg/kg, po every two days for 14 days relative to control; type: functional; conditions: CT26, 336 h, time 14 day
[29] = Toxicity in Balb/c mouse homografted with mouse CT-26-muPAR-mCherry cells assessed as vascular hyperemia at 100 mg/kg, po every two days for 15 days; type: organism-based; conditions: in vivo, 360 h, time 15 day
[30] = test system: CT26; assay: In vivo antimetastatic activity against mouse CT-26-muPAR-mCherry cells intravenously homografted in Balb/c mouse lung metastatic model assessed as suppression of metastases of cancer cells around vessels at 100 mg/kg, po every two days for 15 days by histopathological analysis; type: functional, organism-based; conditions: time 15.0 day
[31] = test system: CT26; assay: In vivo antimetastatic activity against mouse CT-26-muPAR-mCherry cells intravenously homografted in Balb/c mouse lung metastatic model assessed as suppression of hyperplastic nodules on the pleural surface in lung at 30 to 100 mg/kg, po every two days for 15 days; type: functional, organism-based; conditions: dose 30-100 mg/kg, time 15.0 day
[32] = Toxicity in Balb/c mouse homografted with mouse CT-26-muPAR-mCherry cells assessed as adverse effect at 100 mg/kg, po every two days for 15 days; type: organism-based; conditions: in vivo, 360 h, time 15 day
[33] = Toxicity in Balb/c mouse homografted with mouse CT26 cells assessed as body weight at 100 mg/kg, po every two days for 14 days; type: organism-based; conditions: in vivo, 336 h, time 14 day

O=C(/C=C/c1ccc(O)c(O)c1)OCCc1ccccc1
RU [1]: 8

O=C(O)CCc1nc(-c2ccccc2)c(-c2ccccc2)o1 [OXAPROZIN]
RU [1]: 20
pKd [2]: 3.94

CCc1c(C)[nH]c2c1C(=O)CC(CN1CCOCC1)C2 (centres undefined)
RU [1]: 11

CNC(=C[N+](=O)[O-])NCCSCc1ccc(CN(C)C)o1
RU [1]: 0

CCc1c(C)[nH]c2c1C(=O)C(CN1CCOCC1)CC2 (centres undefined)
RU [1]: 8

COc1ccc(Cl)cc1C(=O)NCCc1ccc(S(=O)(=O)NC(=O)NC2CCCCC2)cc1 [GLYBURIDE]
Activity [3]: Active
inhibition in vivo at 300 mg/kg [4]: 62.8%
Activity [5]: 70%
RU [1]: 33
Activity [6]: Dose-Dependent Effect
Activity [7]: Active
Activity [8]: Active
Activity [9]: inactive
Activity [10]: Active
Activity [11]: Active
Activity [12]: Active
Activity [13]: Dose-Dependent Effect
Activity [14]: Active
Activity [15]: Dose-Dependent Effect
Activity [16]: Active
Activity [17]: Dose-Dependent Effect
pKd [2]: 4.39
Activity [18]: Active
pIC50 [19]: 4.16
Activity [20]: Non-Toxic
Activity [21]: Non-Toxic
Activity [22]: 83%
Activity [23]: Active
Activity [24]: Non-Toxic

CNCCCC12CCC(c3ccccc31)c1ccccc12 [MAPROTILINE]
RU [1]: 13
pKd [2]: 4.10

CCN[C@H]1CN(CCCOC)S(=O)(=O)c2sc(S(N)(=O)=O)cc21
RU [1]: -1

CCN(CC)CCCC(C)Nc1c2ccc(Cl)cc2nc2ccc(OC)cc12 (centres undefined)
RU [1]: 20

CCCCC1C(=O)N(c2ccccc2)N(c2ccccc2)C1=O
RU [1]: 2.7

O=C(O)c1cccnc1Nc1cccc(C(F)(F)F)c1
RU [1]: 7

CC(C)(C)c1ccc(C(=O)CCCN2CCC(OC(c3ccccc3)c3ccccc3)CC2)cc1
RU [1]: 1.5

COC(=O)[C@@H](N)CCCNC(=N)N[N+](=O)[O-]
RU [1]: 0

CN/C(=N\CCSCc1nc[nH]c1C)NC#N
RU [1]: -3

NC(CO)C(=O)NNCc1ccc(O)c(O)c1O (centres undefined)
RU [1]: 0

CCCCCOC(=O)Nc1nc(=O)n([C@@H]2O[C@@H](O)[C@@H](O)[C@H]2O)cc1F
RU [1]: 1

CN(C)CCCC1(c2ccc(F)cc2)OCc2cc(C#N)ccc21 (centres undefined)
RU [1]: 7

CCN(CC)CCOC(=O)c1ccc(N)cc1
RU [1]: 17

COc1ccc(CN(CCN(C)C)c2ccccc2)cc1
RU [1]: 1.7

CN(C)CCC=C1c2ccccc2CCc2ccccc21
RU [1]: 11

O=C(CCCN1CCC(O)(c2ccc(Cl)cc2)CC1)c1ccc(F)cc1 [HALOPERIDOL]
RU [1]: 10
pKd [2]: 4.39

CC(=O)OCC(CCn1cnc2cnc(N)nc21)COC(C)=O
RU [1]: -4

CCOC(=O)Nc1ccc(NCc2ccc(F)cc2)nc1N
RU [1]: 15

CNCC(O)c1ccc(O)cc1 (centres undefined)
RU [1]: 0.5

COc1ccc([C@@H]2Sc3ccccc3N(CCN(C)C)C(=O)[C@@H]2OC(C)=O)cc1 [DILTIAZEM]
Activity [25]: Active
Activity [3]: Active
Activity [26]: Active
Activity [5]: 76%
Activity [27]: 61%
RU [1]: 12
Activity [6]: Dose-Dependent Effect
Activity [9]: inactive
inhibition in vivo at 100 mg/kg [28]: 73.2%
Activity [11]: Active
Activity [29]: Toxic
Activity [12]: Active
Activity [13]: Dose-Dependent Effect
Activity [14]: Active
Activity [30]: Active
Activity [15]: Dose-Dependent Effect
Activity [31]: Active
Activity [17]: Dose-Dependent Effect
Activity [32]: Non-Toxic
pKd [2]: 4.41
Activity [33]: Non-Toxic
Activity [18]: Active
pIC50 [19]: 4.23
Activity [20]: Non-Toxic
Activity [23]: Active

Cc1ccc(S(=O)(=O)N[C@@H](CCCCN)C(=O)CCl)cc1
RU [1]: 0

O=C1CC2(CCCC2)CC(=O)N1CCCCN1CCN(c2ncccn2)CC1
RU [1]: 1

CC(C)=CCOc1c2occc2cc2ccc(=O)oc12
RU [1]: 1

CC(CCc1ccc(O)cc1)NCCc1ccc(O)c(O)c1 (centres undefined)
RU [1]: 5.5
